Measured values as given in patent US8278319B2, “Substituted spiroamine compounds” (Gruenenthal GmbH, priority 2008, dated 2012).

Experiments:
human B1R = target: T1, human B1R (Homo sapiens, UniProt P46663); test: Functional investigation on the bradykinin receptor 1 (B1R), FLIPR Ca2+ assay, hB1R cells; type: cell-based; conditions: % inhibition human B1R at 10 μM; CHO K1 cells transfected with human B1R; agonist Lys-Des-Arg9 bradykinin at EC80; read-out: % Inh. (hum. B1R) 10 μM
T1 construct: expressed in transfected cells; host or cells: CHO K1 cells
T1 sequence (P46663 1-353): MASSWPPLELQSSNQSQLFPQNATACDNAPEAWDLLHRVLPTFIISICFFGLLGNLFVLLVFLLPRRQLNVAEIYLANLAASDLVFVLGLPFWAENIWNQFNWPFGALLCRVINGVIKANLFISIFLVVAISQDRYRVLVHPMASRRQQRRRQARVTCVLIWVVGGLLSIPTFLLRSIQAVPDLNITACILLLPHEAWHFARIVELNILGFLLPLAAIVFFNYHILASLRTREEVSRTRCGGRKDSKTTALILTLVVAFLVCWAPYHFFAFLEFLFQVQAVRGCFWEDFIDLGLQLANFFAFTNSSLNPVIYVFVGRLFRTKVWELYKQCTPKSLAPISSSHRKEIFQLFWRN
Protocol: (§1) The agonistic or antagonistic action of substances can be quantified on the bradykinin receptor 1 (B1R) of the human and rat species with ectopically expressing cell lines (CHO K1 cells) and with the aid of a Ca^2+-sensitive dye (Fluo-4) using a fluorescent imaging plate reader (FLIPR). The indication in % activation is based on the Ca^2+ signal after addition of Lys-Des-Arg^9 bradykinin (0.5 nM) or Des-Arg^9 bradykinin (100 nM). Antagonists lead to a suppression of the Ca^2+ influx following administration of the agonist. The % inhibition in comparison with the maximum achievable inhibition is indicated.
(§2) The agonistic or antagonistic action of substances can be determined on the bradykinin 1 receptor (B1R) of the human and rat species with the following assay. According to this assay, the Ca^2+ inflow through the channel is quantified with the aid of a Ca^2+-sensitive dye (Fluo-4 type, Molecular Probes Europe BV, Leiden, The Netherlands) in a fluorescent imaging plate reader (FLIPR, Molecular Devices, Sunnyvale, USA).
(§3) Chinese hamster ovary cells (CHO K1 cells) which are stably transfected with the human B1R gene (hB1R cells) or the B1R gene of the rat (rB1R cells) are used. For functional investigations, these cells are plated-out onto black 96-well plates with a clear base (BD Biosciences, Heidelberg, Germany or Greiner, Frickenhausen, Germany) in a density of 20,000-35,000 cells/well. Overnight, the cells are incubated at 37° C. and 5% CO2 in culture medium (hB1R cells: Nutrient Mixture Ham's F12, Gibco Invitrogen GmbH, Karlsruhe, Germany or DMEM, Sigma-Aldrich, Taufkirchen, Germany; rB1R cells: D-MEM/F12, Gibco Invitrogen, Karlsruhe, Germany) with 10 vol. % FBS (foetal bovine serum, Gibco Invitrogen GmbH, Karlsruhe, Germany or PAN Biotech GmbH, Aidenbach, Germany). On the following day the cells are loaded with 2.13 μM Fluo-4 (Molecular Probes Europe BV, Leiden, The Netherlands) in HBSS buffer (Hank's buffered saline solution, Gibco Invitrogen GmbH, Karlsruhe, Germany) with 2.5 mM probenecid (Sigma-Aldrich, Taufkirchen, Germany) and 10 mM HEPES (Sigma-Aldrich, Taufkirchen, Germany) for 60 min at 37° C. The plates are the washed twice with HBSS buffer, and HBSS buffer which additionally contains 0.1% BSA (bovine serum albumin; Sigma-Aldrich, Taufkirchen, Germany), 5.6 mM glucose and 0.05% gelatine (Merck KGaA, Darmstadt, Germany) is added. After a further incubation of 20 minutes at room temperature, the plates are inserted into the FLIPR for Ca^2+ measurement. Alternatively they are washed with buffer A (15 mM HEPES, 80 mM NaCl, 5 mM KCl, 1.2 mM CaCl2, 0.7 mM MgSO4, 2 g/l glucose, 2.5 mM probenecid) and loaded with buffer A with added 2.5 μM Fluo-4 and 0.025% Pluronic F127 (Sigma-Aldrich, Taufkirchen, Germany). The cells are then washed twice with buffer A and incubated for 30 minutes with buffer A, which additionally contains 0.05% BSA and 0.05% gelatine, at room temperature and then used for Ca^2+ measurement in the FLIPR.
(§4) The Ca^2+-dependent fluorescence is measured here before and after addition of substances (λex=488 nm, λem=540 nm). The quantification is performed by measuring the highest fluorescence intensity (FC, fluorescence counts) over time.
(§5) The FLIPR protocol comprises two additions of substance. Test substances (10 μM) are first pipetted onto the cells and the Ca^2+ inflow is compared with the control (hB1R: Lys-Des-Arg^9 bradykinin>=50 nM; rB1R: Des-Arg^9 bradykinin 10 μM). The value in % activation based on the Ca^2+ signal after addition of Lys-Des-Arg^9 bradykinin (>=50 nM) or Des-Arg^9 bradykinin (10 μM) is obtained therefrom. After incubation for 10-20 minutes, Lys-Des-Arg^9 bradykinin (hB1R) or Des-Arg^9 bradykinin (rB1R) is applied in the EC80 concentration and the inflow of Ca^2+ is likewise determined. Antagonists lead to a suppression of the Ca^2+ inflow. The % inhibition in comparison with the maximum achievable inhibition is calculated. […]

rat B1R = target: T2, rat B1R (Rattus norvegicus, UniProt P97583); test: Functional investigation on the bradykinin receptor 1 (B1R), FLIPR Ca2+ assay, rB1R cells; type: cell-based; conditions: % inhibition rat B1R at 10 μM; CHO K1 cells transfected with rat B1R; agonist Des-Arg9 bradykinin at EC80; read-out: % Inh. (rat B1R) 10 μM
T2 construct: expressed in transfected cells; host or cells: CHO K1 cells
T2 sequence (P97583 1-337): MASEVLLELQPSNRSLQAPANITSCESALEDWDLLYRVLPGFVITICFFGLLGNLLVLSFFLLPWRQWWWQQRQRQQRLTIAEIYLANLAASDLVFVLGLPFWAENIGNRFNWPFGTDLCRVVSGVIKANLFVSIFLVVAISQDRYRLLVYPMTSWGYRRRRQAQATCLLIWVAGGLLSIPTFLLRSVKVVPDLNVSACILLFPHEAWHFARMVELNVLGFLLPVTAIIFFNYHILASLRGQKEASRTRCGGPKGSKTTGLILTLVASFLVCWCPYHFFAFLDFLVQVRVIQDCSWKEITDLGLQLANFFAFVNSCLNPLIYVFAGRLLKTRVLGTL
Protocol: as §1, §2, §3, §4, §5

SMILES | inhibition at 10 µM (human B1R) [%] | inhibition at 10 µM (rat B1R) [%]
COc1cc(C)c(S(=O)(=O)N2CCCCC2CCCC(=O)N2CCC3(CC2)CCC(c2cccc(F)c2)(N2CCCC2)CC3)c(C)c1 (stereo not shown) [CC-02, 1-[3-(3-Fluorophenyl)-3-pyrrolidin-1-yl-9-azaspiro[5.5]undecan-9-yl]-4-[1-[(4-methoxy-2,6-dimethyl-phenyl)sulfonyl]-pipereridin-2-yl]-butan-1-one] | 100 | 98
Cc1cccc(Cl)c1S(=O)(=O)N1CCCCC1COCC(=O)N1CCC2(CC1)CCC(c1cccc(F)c1)(N1CCCC1)CC2 (stereo not shown) [CC-05, 2-[[1-[(2-Chloro-6-methyl-phenyl)sulfonyl]-piperidin-2-yl]-methoxy]-1-[3-(3-fluorophenyl)-3-pyrrolidin-1-yl-9-azaspiro[5.5]undecan-9-yl]-ethanone] | 100 | 98
CN(C)C1(c2ccccc2)CCC2(CCN(C(=O)C[C@@H](NS(=O)(=O)c3ccc4ccccc4c3)c3ccccc3)CC2)CC1 [Compound 5, N-((1R)-3-(9-(Dimethylamino)-9-phenyl-3-azaspiro[5.5]undecan-3-yl)-3-oxo-1-phenylpropyl)naphthalene-2-sulfonamide] | 77 | 99
COc1cc(C)c(S(=O)(=O)N(CCOCC(=O)N2CCC3(CC2)CCC(c2cccc(F)c2)(N2CCCC2)CC3)C2CC2)c(C)c1 [CC-04, N-Cyclopropyl-N-[2-[2-[3-(3-fluorophenyl)-3-pyrrolidin-1-yl-9-azaspiro[5.5]undecan-9-yl]-2-oxo-ethoxy]-ethyl]-4-methoxy-2,6-dimethyl-benzenesulfonic acid amide] | 100 | 98
Cc1cc(S(=O)(=O)N2CCCCC2CCC(=O)N2CCC3(CC2)CCC(c2ccccc2)(N(C)C)CC3)c(C)cc1Cl (stereo not shown) [Compound 7, 3-(1-(4-Chloro-2,5-dimethylphenylsulfonyl)piperidin-2-yl)-1-(9-(dimethylamino)-9-phenyl-3-azaspiro[5.5]undecan-3-yl)propan-1-one] | 98 | 97
O=C(CC(NS(=O)(=O)c1ccc2ccccc2c1)c1ccccc1)N1CCC2(CC1)CCC(c1cccc(F)c1)(N1CCCC1)CC2 (stereo not shown) [CC-08, N-[3-[3-(3-Fluorophenyl)-3-pyrrolidin-1-yl-9-azaspiro[5.5]undecan-9-yl]-3-oxo-1-phenyl-propyl]-naphthalene-2-sulfonic acid amide] | 81 | 96
CN(C)C1(c2ccccc2)CCC2(CCN(C(=O)CC3CCCCN3S(=O)(=O)c3cccc(C(F)(F)F)c3)CC2)CC1 (stereo not shown) [Compound 9, 1-(9-(Dimethylamino)-9-phenyl-3-azaspiro[5.5]undecan-3-yl)-2-(1-(3-(trifluoromethyl)phenylsulfonyl)piperidin-2-yl)ethan-1-one] | 92 | 38
COc1cc(C)c(S(=O)(=O)N2CCCC[C@H]2COCC(=O)N2CCC3(CC2)CCC(c2ccccc2)(N(C)C)CC3)c(C)c1 [Compound 2, 1-(9-(Dimethylamino)-9-phenyl-3-azaspiro[5.5]undecan-3-yl)-2-(((S)-1-(4-methoxy-2,6-dimethylphenylsulfonyl)piperidin-2-yl)methoxy)ethanone] | 100 | 94
Cc1cccc(Cl)c1S(=O)(=O)N(CCOCC(=O)N1CCC2(CC1)CCC(c1cccs1)(N(C)C)CC2)C1CC1 [CC-09, 2-Chloro-N-cyclopropyl-N-[2-[2-(3-dimethylamino-3-thiophen-2-yl-9-azaspiro[5.5]undecan-9-yl)-2-oxo-ethoxy]-ethyl]-6-methyl-benzenesulfonic acid amide] | 100 | 97
COc1cc(C)c(S(=O)(=O)N2CCCC[C@H]2COCC(=O)N2CCC3(CC2)CCC(c2ccccc2)(N2CCC2)CC3)c(C)c1 [Compound 12, 1-(9-(Azetidin-1-yl)-9-phenyl-3-azaspiro[5.5]undecan-3-yl)-2-(((S)-1-(4-methoxy-2,6-dimethylphenylsulfonyl)piperidin-2-yl)methoxy)ethanone] | 100 | 102
Cc1cccc(Cl)c1S(=O)(=O)N1CCCCC1COCC(=O)N1CCC2(CC1)CCC(c1cccs1)(N(C)C)CC2 (stereo not shown) [CC-13, 2-[[1-[(2-Chloro-6-methyl-phenyl)sulfonyl]-piperidin-2-yl]-methoxy]-1-(3-dimethylamino-3-thiophen-2-yl-9-azaspiro[5.5]undecan-9-yl)-ethanone] | 100 | 98
COc1cc(C)c(S(=O)(=O)N(CCOCC(=O)N2CCC3(CC2)CCC(c2cccs2)(N(C)C)CC3)C2CC2)c(C)c1 [CC-12, N-Cyclopropyl-N-[2-[2-(3-dimethylamino-3-thiophen-2-yl-9-azaspiro[5.5]undecan-9-yl)-2-oxo-ethoxy]-ethyl]-4-methoxy-2,6-dimethyl-benzenesulfonic acid amide] | 100 | 97
Cc1cccc(Cl)c1S(=O)(=O)N(CCOCC(=O)N1CCC2(CC1)CCC(c1cccc(F)c1)(N1CCCC1)CC2)C1CC1 [CC-06, 2-Chloro-N-cyclopropyl-N-[2-[2-[3-(3-fluorophenyl)-3-pyrrolidin-1-yl-9-azaspiro[5.5]undecan-9-yl]-2-oxo-ethoxy]-ethyl]-6-methyl-benzenesulfonic acid amide] | 100 | 97
Cc1cccc(Cl)c1S(=O)(=O)N1CCCC[C@H]1COCC(=O)N1CCC2(CC1)CCC(c1ccccc1)(N(C)C)CC2 [Compound 6, 2-(((S)-1-(2-Chloro-6-methylphenylsulfonyl)piperidin-2-yl)methoxy)-1-(9-(dimethylamino)-9-phenyl-3-azaspiro[5.5]undecan-3-yl)ethanone] | 100 | 97
